# Data reported in the supplement of paper PMC10307832.
# Key:
# Assay in all cases: relative viability (nuclei count vs DMSO), 5 days (fraction); higher = more cells survive
# Silmitasertib + AZD7762 = compound: O=C(O)c1ccc2c(c1)nc(Nc1cccc(Cl)c1)c1ccncc12 [Silmitasertib] + NC(=O)Nc1cc(-c2cccc(F)c2)sc1C(=O)N[C@H]1CCCNC1 [AZD7762] (partner 0.2 µM)
# Summary of the method: (§1)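 A single step with final 0.05% Triton X-100, 1% formaldehyde and 1 ug/ml Hoechst fixed the cells and stained nuclei 5 days after treatment. Lung cancer cell lines in 1536-well plates had been treated by pin tool the day after seeding with one drug alone or a fixed anchor-drug dose plus five library-drug doses (not always all listed) in √10 steps, and nuclei were counted on 4× images. Relative viability is the ratio of nuclei in treated wells to nuclei in vehicle wells, taken as the median of duplicate plates.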
# [1] = compound: O=C(O)c1ccc2c(c1)nc(Nc1cccc(Cl)c1)c1ccncc12 [Silmitasertib] + CC(C)C[C@H](NC(=O)[C@H](Cc1ccccc1)NC(=O)c1cnccn1)B(O)O [Bortezomib] (partner 0.002 µM)
# Summary of the method: as §1
# [2] = compound: O=C(O)c1ccc2c(c1)nc(Nc1cccc(Cl)c1)c1ccncc12 [Silmitasertib] + N=C(N)NC(=N)NCCc1ccccc1 [Phenformin] (partner 250 µM)
# Summary of the method: as §1
# [3] = compound: O=C(O)c1ccc2c(c1)nc(Nc1cccc(Cl)c1)c1ccncc12 [Silmitasertib] + C[C@]1(O)C[C@@H](c2nc(-c3ccc4ccc(-c5ccccc5)nc4c3)c3c(N)nccn32)C1 [Linsitinib] (partner 1 µM)
# Summary of the method: as §1
# [4] = compound: O=C(O)c1ccc2c(c1)nc(Nc1cccc(Cl)c1)c1ccncc12 [Silmitasertib] + Nc1ncn([C@H]2C[C@H](O)[C@@H](CO)O2)c(=O)n1 [Decitabine] (partner 2 µM)
# Summary of the method: as §1
Cell Line,relative viability (Silmitasertib + AZD7762; first compound 0.04 µM),relative viability (Silmitasertib + AZD7762; first compound 0.4 µM),relative viability (Silmitasertib + AZD7762; first compound 1.265 µM),relative viability (Silmitasertib + AZD7762; first compound 4 µM),relative viability ([1]; first compound 0.04 µM),relative viability ([1]; first compound 0.4 µM),relative viability ([1]; first compound 1.265 µM),relative viability ([1]; first compound 4 µM),relative viability ([2]; first compound 0.04 µM),relative viability ([2]; first compound 0.4 µM),relative viability ([2]; first compound 1.265 µM),relative viability ([2]; first compound 4 µM),relative viability ([3]; first compound 0.04 µM),relative viability ([3]; first compound 0.4 µM),relative viability ([3]; first compound 1.265 µM),relative viability ([3]; first compound 4 µM),relative viability ([4]; first compound 0.04 µM),relative viability ([4]; first compound 0.4 µM),relative viability ([4]; first compound 1.265 µM),relative viability ([4]; first compound 4 µM)
201T,0.636,0.372,0.754,0.682,1.03,1.1,1.16,1.2,0.421,0.426,0.469,0.449,1.03,1.02,0.889,1.01,0.851,0.841,0.847,0.903
A549,–,–,–,–,–,–,–,–,0.237,0.131,0.121,0.161,0.792,–,0.507,0.678,0.244,–,0.27,0.158
A-427,0.852,0.555,0.562,0.445,1.1,–,1.24,0.703,0.365,–,0.297,0.156,1.11,–,1.28,1.04,0.525,0.554,0.461,0.421
ABC-1,0.948,0.824,0.8,0.567,0.402,0.353,0.281,0.226,0.298,0.214,0.179,0.201,0.788,1.13,0.523,0.294,1.44,1.05,0.686,0.922
BEN,0.935,0.674,0.625,0.568,0.9,0.584,0.644,0.599,0.275,–,0.281,0.258,1.03,0.892,1.01,0.882,0.866,0.685,0.537,0.656
CAL-12T,0.656,0.7,0.805,0.77,1.12,0.949,0.777,0.709,0.67,0.488,0.352,0.296,0.93,0.826,0.652,0.475,–,–,–,–
COR-L23,–,–,–,–,1.15,0.723,0.919,0.932,0.51,0.372,0.483,0.314,1.02,0.843,0.821,0.638,0.495,0.507,0.501,0.368
COR-L 105,–,–,–,–,0.803,0.708,0.64,0.414,0.476,0.458,0.408,0.307,0.977,0.82,0.92,0.574,0.626,0.599,0.672,0.454
ChaGo-K-1,0.905,0.618,0.85,0.913,1.32,0.934,0.957,0.537,0.532,0.349,0.446,0.319,–,–,–,–,0.526,0.486,0.463,0.509
EKVX,0.834,–,0.682,0.642,1.12,0.686,0.928,0.59,0.22,0.167,0.185,0.203,1.15,0.869,0.711,0.677,0.421,–,0.374,0.299
EMC-BAC-2,1.22,1.04,1.08,0.662,1.05,0.999,1.06,0.784,0.578,0.493,0.381,0.301,0.891,0.769,0.709,0.686,1.01,0.951,0.93,0.819
EPLC-272H,0.232,–,0.275,0.217,0.906,–,0.573,0.491,0.399,–,0.23,0.088,1.31,–,0.84,0.862,0.475,–,0.296,0.348
H3255,1.09,0.808,0.807,0.77,0.937,0.848,0.741,0.36,0.355,0.353,0.31,0.359,1.09,0.944,0.903,0.991,0.563,0.703,0.543,0.532
HARA,0.411,0.289,0.589,0.443,1.12,0.812,0.949,0.766,0.439,0.253,0.448,0.162,1.1,0.753,0.77,0.729,0.698,0.554,0.494,0.355
HCC-15,1.19,0.884,1.15,0.875,1.02,0.655,0.856,0.408,0.541,0.39,0.398,0.25,0.882,0.681,0.671,0.475,0.703,0.536,0.404,0.292
IA-LM,–,–,–,–,0.879,0.632,1.01,0.586,–,–,–,–,0.657,0.559,0.717,0.236,–,–,–,–
LK-2,0.344,–,0.362,0.219,–,–,–,–,0.485,–,0.415,0.271,0.557,0.474,0.365,0.451,0.312,–,0.194,0.21

Cell Line,relative viability (Silmitasertib + AZD7762; first compound 0.04 µM),relative viability (Silmitasertib + AZD7762; first compound 0.4 µM),relative viability (Silmitasertib + AZD7762; first compound 1.265 µM),relative viability (Silmitasertib + AZD7762; first compound 4 µM),relative viability ([1]; first compound 0.04 µM),relative viability ([1]; first compound 0.4 µM),relative viability ([1]; first compound 1.265 µM),relative viability ([1]; first compound 4 µM),relative viability ([2]; first compound 0.04 µM),relative viability ([2]; first compound 0.4 µM),relative viability ([2]; first compound 1.265 µM),relative viability ([2]; first compound 4 µM),relative viability ([3]; first compound 0.04 µM),relative viability ([3]; first compound 0.4 µM),relative viability ([3]; first compound 1.265 µM),relative viability ([3]; first compound 4 µM),relative viability ([4]; first compound 0.04 µM),relative viability ([4]; first compound 0.4 µM),relative viability ([4]; first compound 1.265 µM),relative viability ([4]; first compound 4 µM)
NCI-H358,0.633,0.574,0.595,0.567,–,–,–,–,0.371,0.272,0.325,0.225,0.902,0.799,0.585,0.607,0.22,0.217,0.199,0.199
NCI-H520,–,–,–,–,0.622,0.515,0.389,0.422,0.677,0.492,0.605,0.429,1.05,1.17,1.04,0.785,0.586,0.578,0.528,0.502
NCI-H522,0.89,0.841,0.822,0.819,–,–,–,–,0.669,0.554,0.626,0.678,–,–,–,–,0.653,0.62,0.69,0.655
NCI-H661,–,–,–,–,0.852,–,0.734,1.1,0.287,0.339,0.283,0.276,0.646,–,0.38,0.577,0.636,0.617,0.548,0.441
NCI-H1395,0.425,0.42,0.421,0.41,–,–,–,–,0.495,0.436,0.49,0.373,1.14,0.919,1,1.01,0.756,0.725,0.684,0.683
NCI-H1650,–,–,–,–,0.375,0.192,0.232,0.195,0.49,0.412,0.283,0.151,–,–,–,–,0.525,0.419,0.315,0.254
NCI-H1793,0.725,0.457,0.654,0.515,–,–,–,–,0.396,0.29,0.346,0.373,1.24,0.914,0.735,0.79,0.499,0.458,0.493,0.419
NCI-H1944,0.591,0.399,0.547,0.528,–,–,–,–,0.21,0.211,0.22,0.186,1.17,1.15,0.968,1.25,0.442,0.467,0.46,0.497
NCI-H2009,–,–,–,–,1.14,0.545,0.944,0.463,0.542,0.487,0.374,0.312,1.27,1.2,1.16,0.77,0.382,0.39,0.392,0.371
NCI-H2023,–,–,–,–,1.13,0.557,0.946,0.282,0.455,0.38,0.374,0.34,0.741,0.62,0.532,0.472,0.239,0.225,0.208,0.195
NCI-H2170,0.89,0.554,0.836,0.968,–,–,–,–,0.408,0.34,0.406,0.421,–,–,–,–,0.477,0.46,0.457,0.441
NCI-H2228,–,–,–,–,1.46,0.92,0.912,1.13,0.409,–,0.258,0.371,0.787,0.548,0.786,0.628,–,–,–,–
SK-LU-1,–,–,–,–,1.33,0.735,0.801,0.394,0.527,0.451,0.426,0.262,1.22,0.987,0.688,0.297,0.708,0.622,0.297,0.428
SK-MES-1,–,–,–,–,–,–,–,–,0.752,0.582,0.434,0.27,1.18,1.13,1.11,1.09,0.396,0.382,0.328,0.209
SW 900,0.72,0.578,0.691,0.338,–,–,–,–,0.817,0.34,0.452,0.24,–,–,–,–,0.499,0.422,0.377,0.347
SW 1573,–,–,–,–,1.09,1.15,1.02,0.977,0.465,0.319,0.336,0.387,0.805,0.679,0.855,0.682,0.515,0.406,0.441,0.372
UMC-11,–,–,–,–,0.679,0.588,0.65,0.542,0.336,0.319,0.341,0.286,1.04,1.08,1.1,0.678,0.688,0.464,0.587,0.541
